A value given as a limit tells only on which side of the number the result lay.

The test system of one test is TFEB. As to the kind of experiment: TFEB nuclear translocation assay, HeLa wt cells. The format is cell-based. The settings on record: 2 hrs compound treatment, Table 1 does not say HeLa wt or TRPML1 KO. In a few lines:
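Read-out is the ratio of TFEB immunofluorescence in the nucleus to that in a ring just outside it, measured by automated imaging. HeLa wt cells received compounds for 2 hrs at 37° C before fixation and staining; AC50 values come from this ratio.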
For the compound `CC(c1cccc(F)c1N1CCC(CN2C3COCC2C3)CC1)S(=O)(=O)c1ccc(S(=O)(=O)N(C)C)cc1` (stereo not drawn) [Compound A-870, 4-((1-(2-(4-((3-oxa-6-azabicyclo[3.1.1]heptan-6-yl)methyl)piperidin-1-yl)-3-fluorophenyl)ethyl)sulfonyl)-N,N-dimethylbenzenesulfonamideformate], the AC50 was not below 10000 nM.

`CC(c1cccc(F)c1N1CCC(CN2C3CCC2COC3)CC1)S(=O)(=O)c1ccc(S(=O)(=O)N(C)C)cc1` (stereo not drawn) [Compound A-855, 4-((1-(2-(4-((3-oxa-8-azabicyclo[3.2.1]octan-8-yl)methyl)piperidin-1-yl)-3-fluorophenyl)ethyl)sulfonyl)-N,N-dimethylbenzenesulfonamide] yielded an AC50 of 2010 to 8000 nM.

Still in this test, the particulars now being: Homo sapiens, HeLa, 2 h, 2 hrs compound treatment, Table 1 does not say HeLa wt or TRPML1 KO.
In the case of `CC1(C)CC2(CCN(c3ccccc3NS(=O)(=O)c3cccc(C4OCCO4)c3)CC2)CO1` [Compound A-670, N-(2-{3,3-dimethyl-2-oxa-8-azaspiro[4.5]decan-8-yl}phenyl)-3-(1,3-dioxolan-2-yl)benzene-1-sulfonamide], the half-maximal activity concentration (AC50) fell in the range of 2010 to 8000 nM.

Take `COc1ccc(CN2C(=O)C(c3ccc(Cl)cc3F)Oc3ccccc32)cc1` (stereo not drawn) [Compound A-371, 2-(4-chloro-2-fluorophenyl)-4-(4-methoxybenzyl)-2H-benzo[b][1,4]oxazin-3(4H)-one]: the half-maximal activity concentration (AC50) was not above 2000 nM.

The compound `COc1ccc(S(=O)(=O)Nc2ccccc2N2CCC3(CC2)CN(C)c2cc(F)ccc23)cc1` [Compound A-252, N-(2-{6-fluoro-1-methyl-1,2-dihydrospiro[indole-3,4′-piperidin]-1′-yl}phenyl)-4-methoxybenzene-1-sulfonamide] returned an AC50 not above 2000 nM.

Regarding `CN(C)S(=O)(=O)c1ccc(S(=O)(=O)N(C)c2cc(F)ccc2N2CCC3(CC2)COC(C)(C)C3)cc1` [Compound A-728, N1-(2-{3,3-dimethyl-2-oxa-8-azaspiro[4.5]decan-8-yl}-5-fluorophenyl)-N1,N4,N4-trimethylbenzene-1,4-disulfonamide], the AC50 is 2010 to 8000 nM.

With `CCC1(N2CCN(c3ccccc3NS(=O)(=O)c3ccc(S(=O)(=O)N(C)C)cc3)CC2)COC1` [Compound A-464, N4-{2-[4-(3-ethyloxetan-3-yl)piperazin-1-yl]phenyl}-N1,N1-dimethylbenzene-1,4-disulfonamide], the AC50 lay within 2010 to 8000 nM.

Regarding `CS(=O)(=O)c1ccc(S(=O)(=O)Nc2ccccc2N2CCC(c3c(F)cc(F)cc3F)CC2)cc1` [Compound A-132, 4-methanesulfonyl-N-{2-[4-(2,4,6-trifluorophenyl)piperidin-1-yl]phenyl}benzene-1-sulfonamide], the AC50 is not above 2000 nM.

`O=S(=O)(Nc1ccccc1N1CCC(c2ccc(Cl)cc2F)CC1)c1ccc(F)cc1` [Compound A-74, N-{2-[4-(4-chloro-2-fluorophenyl)piperidin-1-yl]phenyl}-4-fluorobenzene-1-sulfonamide] came in with a half-maximal activity concentration (AC50) of 2010 to 8000 nM.

The compound `CN(C)S(=O)(=O)c1ccc(S(=O)(=O)Nc2ccccc2N2CCC3(COC(C)(C)C3)CC2=O)cc1` (stereo not drawn) [Compound A-735, N4-(2-{3,3-dimethyl-7-oxo-2-oxa-8-azaspiro[4.5]decan-8-yl}phenyl)-N1,N1-dimethylbenzene-1,4-disulfonamide] had an AC50 not below 10000 nM.

The compound `CC1(C)CC2(CCN(c3ccccc3NS(=O)(=O)c3ccc(C4CC4)s3)CC2)CO1` [Compound A-674, 5-cyclopropyl-N-(2-{3,3-dimethyl-2-oxa-8-azaspiro[4.5]decan-8-yl}phenyl)thiophene-2-sulfonamide] displayed an AC50 not above 2000 nM.

With `CN(C)S(=O)(=O)c1ccc(S(=O)(=O)Nc2ccccc2N2CCN(c3ccn(C(C)(C)C)n3)CC2)cc1` [Compound A-414, N4-{2-[4-(1-tert-butyl-1H-pyrazol-3-yl)piperazin-1-yl]phenyl}-N1,N1-dimethylbenzene-1,4-disulfonamide], the AC50 is not above 2000 nM.

In the case of `O=C1c2ccccc2S(=O)(=O)N1c1ccccc1N1CCC(c2ccc(Cl)cc2F)CC1` [Compound A-85, 2-{2-[4-(4-chloro-2-fluorophenyl)piperidin-1-yl]phenyl}-2,3-dihydro-1λ^6,2-benzothiazole-1,1,3-trione], the concentration at half-maximal activity (AC50) is not below 10000 nM.

Compound `CC1(C)CC2(CCN(c3ccccc3NS(=O)(=O)c3ccc(OC(F)(F)F)cc3)CC2)CO1` [Compound A-673, N-(2-{3,3-dimethyl-2-oxa-8-azaspiro[4.5]decan-8-yl}phenyl)-4-(trifluoromethoxy)benzene-1-sulfonamide] came in with an AC50 of 2010 to 8000 nM.

Regarding `CC1(C)Cc2cc(S(=O)(=O)Nc3ccccc3N3CCC4(CCOCC4)CC3)ccc2O1` [Compound A-654, 2,2-dimethyl-N-(2-{3-oxa-9-azaspiro[5.5]undecan-9-yl}phenyl)-2,3-dihydro-1-benzofuran-5-sulfonamide], the concentration at half-maximal activity (AC50) was not above 2000 nM.

`O=S(=O)(CCO)c1ccc(S(=O)(=O)Nc2ccccc2N2CCC(c3ccc(Cl)cc3F)CC2)cc1` [Compound A-637, N-{2-[4-(4-chloro-2-fluorophenyl)piperidin-1-yl]phenyl}-4-(2-hydroxyethanesulfonyl)benzene-1-sulfonamide] yielded an AC50 not below 10000 nM.

`C[C@H](c1cccc(F)c1N1CCC(C2(N3CCOCC3)CC2)CC1)S(=O)(=O)c1ccc(S(=N)(=O)N(C)C)cc1` (single isomer, unassigned) [Compound A-892] returned an AC50 of 8010 to 9990 nM.

The compound `C[C@@H]1CN(CC2CCN(c3c(F)cccc3[C@H](C)S(=O)(=O)c3ccc(S(=N)(=O)N(C)C)cc3)CC2)C[C@H](C)O1` (single isomer, unassigned) [Compound A-931] returned an AC50 not above 2000 nM.

In turn, `O=S(=O)(Nc1cc(Cl)ccc1N1CCCC2(COC2)C1)c1ccc2c(c1)CCC2` [Compound A-345, N-(5-chloro-2-{2-oxa-6-azaspiro[3.5]nonan-6-yl}phenyl)-2,3-dihydro-1H-indene-5-sulfonamide] showed an AC50 of 2010 to 8000 nM.

Compound `CC1(C)CC2(CCN(c3ccccc3NS(=O)(=O)c3ccn(C4CC4(F)F)n3)CC2)CO1` (stereo not drawn) [Compound A-689, 1-(2,2-difluorocyclopropyl)-N-(2-{3,3-dimethyl-2-oxa-8-azaspiro[4.5]decan-8-yl}phenyl)-1H-pyrazole-3-sulfonamide] returned an AC50 not below 10000 nM.

Turning to `CN(C)S(=O)(=O)c1ccc(S(=O)(=O)Nc2ccccc2[C@H]2CC[C@@H](c3ccc(Cl)cc3F)CC2)cc1` [Compound A-69, N1-(2-(4-(4-chloro-2-fluorophenyl)cyclohexyl)phenyl)-N4,N4-dimethylbenzene-1,4-disulfonamide], the AC50 is 2010 to 8000 nM.

For the compound `O=S(=O)(Nc1cccc(Cl)c1N1CCOCC1)c1ccc(C2CC2)cc1` [Compound A-391, N-[3-chloro-2-(morpholin-4-yl)phenyl]-4-cyclopropylbenzene-1-sulfonamide], the AC50 is 2010 to 8000 nM.

Regarding `O=S(=O)(Nc1ccccc1N1CCC(c2ccc(F)cc2F)CC1)c1ccc(C(F)F)cn1` [Compound A-137, 5-(difluoromethyl)-N-{2-[4-(2,4-difluorophenyl)piperidin-1-yl]phenyl}pyridine-2-sulfonamide], the AC50 was in the range of 2010 to 8000 nM.

`Cc1ccc(S(=O)(=O)Nc2cccc(F)c2N2CCC(CN3C4COCC3C4)CC2)cc1` [Compound A-889, N-{3-fluoro-2-[4-({3-oxa-6-azabicyclo[3.1.1]heptan-6-yl}methyl)piperidin-1-yl]phenyl}-4-methylbenzene-1-sulfonamide] displayed an AC50 of 2010 to 8000 nM.

Turning to `COCC1(C)CCN(c2ccccc2NS(=O)(=O)c2ccc3c(c2)CCC3)CC1` [Compound A-608, N-{2-[4-(methoxymethyl)-4-methylpiperidin-1-yl]phenyl}-2,3-dihydro-1H-indene-5-sulfonamide], the AC50 is not above 2000 nM.

Regarding `CN(C)S(=O)(=O)c1ccc(S(=O)(=O)N2CCN(C3CCN(c4ccc(Cl)cc4F)CC3)C2=O)cc1` [Compound A-86, 4-((3-(1-(4-chloro-2-fluorophenyl)piperidin-4-yl)-2-oxoimidazolidin-1-yl)sulfonyl)-N,N-dimethylbenzenesulfonamide], the AC50 is not below 10000 nM.

On to `Cc1ccc(S(=O)(=O)N(C)c2ccccc2N2CCC(c3ccc(Cl)cc3F)CC2)cc1` [Compound A-107, N-{2-[4-(4-chloro-2-fluorophenyl)piperidin-1-yl]phenyl}-N,4-dimethylbenzene-1-sulfonamide], for which the AC50 was not below 10000 nM.

`COCS(=O)(=O)c1ccc(S(=O)(=O)Nc2ccccc2N2CCC(c3c(F)cccc3F)CC2)cc1` [Compound A-207, N-{2-[4-(2,6-difluorophenyl)piperidin-1-yl]phenyl}-4-methoxymethanesulfonylbenzene-1-sulfonamide]: the AC50 is not above 2000 nM.

For the compound `CN(C)S(=O)(=O)c1ccc(S(=O)(=O)Nc2ccccc2N2CCC(O)(c3ccc(F)cc3F)CC2)cc1` [Compound A-141, N4-{2-[4-(2,4-difluorophenyl)-4-hydroxypiperidin-1-yl]phenyl}-N1,N1-dimethylbenzene-1,4-disulfonamide], the AC50 was not above 2000 nM.

As for `CC1(C)CC2(CCN(c3ccccc3NS(=O)(=O)c3ccc(C(F)F)cc3)CC2)CO1` [Compound A-671, 4-(difluoromethyl)-N-(2-{3,3-dimethyl-2-oxa-8-azaspiro[4.5]decan-8-yl}phenyl)benzene-1-sulfonamide], the AC50 was not above 2000 nM.

With `CN(C)S(=O)(=O)c1ccc(S(=O)(=O)Nc2ccccc2N2CCN(C(=O)C3CC(F)(F)C3)CC2)cc1` [Compound A-429, N4-{2-[4-(3,3-difluorocyclobutanecarbonyl)piperazin-1-yl]phenyl}-N1,N1-dimethylbenzene-1,4-disulfonamide], the AC50 lay within 2010 to 8000 nM.

With `CC(c1ccc(S(=O)(=O)Nc2ccccc2N2CCC(CN3C[C@@H](C)O[C@@H](C)C3)CC2)cc1)C1CC1` (stereo partly drawn) [Compound A-779, 4-(1-cyclopropylethyl)-N-[2-(4-{[(2R,6S)-2,6-dimethylmorpholin-4-yl]methyl}piperidin-1-yl)phenyl]benzene-1-sulfonamide], the AC50 was not above 2000 nM.

Compound `O=S(=O)(Nc1ccccc1N1CCOCC1)c1ccc2c(c1)CCC2` [Compound A-760, N-[2-(morpholin-4-yl)phenyl]-2,3-dihydro-1H-indene-5-sulfonamide] showed an AC50 of 2010 to 8000 nM.

(Values after patent US20230104936A1, “TRPML MODULATORS” (Casma Therapeutics, Inc., priority 2019, published 2023).)
